Test results from US20260078122A1, “INDAZOLE COMPOUNDS AS PKMYT1 KINASE INHIBITORS” (Hoffmann-La Roche Inc., priority 2023, published 2026).

Target: T1, recombinant human Myt1 (full length PKMYT1) (Homo sapiens, UniProt Q99640)
T1 sequence (Q99640 1-499): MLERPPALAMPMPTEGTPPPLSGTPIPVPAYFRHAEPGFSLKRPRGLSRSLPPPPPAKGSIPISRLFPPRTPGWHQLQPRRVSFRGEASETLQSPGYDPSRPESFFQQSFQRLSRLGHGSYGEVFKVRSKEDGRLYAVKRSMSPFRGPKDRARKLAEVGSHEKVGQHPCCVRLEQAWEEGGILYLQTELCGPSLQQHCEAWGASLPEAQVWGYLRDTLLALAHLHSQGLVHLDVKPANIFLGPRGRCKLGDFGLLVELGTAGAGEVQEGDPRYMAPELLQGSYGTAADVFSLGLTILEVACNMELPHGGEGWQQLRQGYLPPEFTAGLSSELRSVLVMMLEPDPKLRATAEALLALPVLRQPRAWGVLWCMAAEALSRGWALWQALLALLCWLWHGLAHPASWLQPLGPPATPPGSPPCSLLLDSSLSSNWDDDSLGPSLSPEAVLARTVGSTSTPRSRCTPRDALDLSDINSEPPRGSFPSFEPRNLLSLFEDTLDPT
Test: ADP-Glo assay (Myt1 kinase activity)

Row | IC50 [nM] | Structure (SMILES)
1 | 11.7 | Cc1nc2c(-c3ccc(F)c4[nH]ncc34)c(N)c(=O)[nH]c2c(Cl)c1C [Example 57, 3-Amino-8-chloro-4-(7-fluoro-1H-indazol-4-yl)-6,7-dimethyl-1H-1,5-naphthyridin-2-one]
2 | < 10 | Cc1cc2[nH]c(=O)c(N)c(-c3ccc(F)c4[nH]ncc34)c2nc1OCC1(C#N)CC1 [Example 58, 1-[[7-Amino-8-(7-fluoro-1H-indazol-4-yl)-3-methyl-6-oxo-5H-1,5-naphthyridin-2-yl]oxymethyl]cyclopropanecarbonitrile]
3 | < 10 | Cc1cc2[nH]c(=O)c(N)c(-c3ccc(F)c4[nH]ncc34)c2nc1OCC(F)F [Example 059, 3-Amino-6-(2,2-difluoroethoxy)-4-(7-fluoro-1H-indazol-4-yl)-7-methyl-1H-1,5-naphthyridin-2-one]
4 | < 10 | COc1nc2c(-c3ccc(F)c4[nH]ncc34)c(N)c(=O)[nH]c2cc1C [Example 060, 3-Amino-4-(7-fluoro-1H-indazol-4-yl)-6-methoxy-7-methyl-1H-1,5-naphthyridin-2-one]
5 | 14.6 | Cc1cc2[nH]c(=O)c(N)c(-c3ccc(F)c4[nH]ncc34)c2nc1OC(F)F [Example 062, 3-Amino-6-(difluoromethoxy)-4-(7-fluoro-1H-indazol-4-yl)-7-methyl-1H-1,5-naphthyridin-2-one]
6 | 9.7 | Cc1cc2[nH]c(=O)c(N)c(-c3ccc(F)c4[nH]ncc34)c2nc1OCC12CC(C1)C2 [Example 063, 3-Amino-6-(1-bicyclo[1.1.1]pentanylmethoxy)-4-(7-fluoro-1H-indazol-4-yl)-7-methyl-1H-1,5-naphthyridin-2-one]
7 | < 10 | Cc1cc2[nH]c(=O)c(N)c(-c3ccc(F)c4[nH]ncc34)c2nc1OC(C)C [Example 064, 3-Amino-4-(7-fluoro-1H-indazol-4-yl)-6-isopropoxy-7-methyl-1H-1,5-naphthyridin-2-one]
8 | 14.7 | CCCOc1nc2c(-c3ccc(F)c4[nH]ncc34)c(N)c(=O)[nH]c2cc1C [Example 065, 3-Amino-4-(7-fluoro-1H-indazol-4-yl)-7-methyl-6-propoxy-1H-1,5-naphthyridin-2-one]
9 | 11.6 | Cc1cc2[nH]c(=O)c(N)c(-c3ccc(F)c4[nH]ncc34)c2nc1OCC(F)(F)F [Example 066, 3-Amino-4-(7-fluoro-1H-indazol-4-yl)-7-methyl-6-(2,2,2-trifluoroethoxy)-1H-1,5-naphthyridin-2-one]
10 | 24.4 | COC(=O)C1CC(Oc2nc3c(-c4ccc(F)c5[nH]ncc45)c(N)c(=O)[nH]c3cc2C)C1 (stereo not shown) [Example 067, Methyl 3-[[7-amino-8-(7-fluoro-1H-indazol-4-yl)-3-methyl-6-oxo-5H-1,5-naphthyridin-2-yl]oxy]cyclobutanecarboxylate]
11 | 17.5 | Cc1cc2[nH]c(=O)c(N)c(-c3ccc(F)c4[nH]ncc34)c2nc1OCCN(C)C [Example 068, 3-Amino-6-[2-(dimethylamino)ethoxy]-4-(7-fluoro-1H-indazol-4-yl)-7-methyl-1H-1,5-naphthyridin-2-one]
12 | 13.1 | COCC#Cc1nc2c(-c3ccc(F)c4[nH]ncc34)c(N)c(=O)[nH]c2cc1C [Example 071, 3-Amino-4-(7-fluoro-1H-indazol-4-yl)-6-(3-methoxyprop-1-ynyl)-7-methyl-1H-1,5-naphthyridin-2-one]
13 | 11.2 | COC(C)(C)C#Cc1nc2c(-c3ccc(F)c4[nH]ncc34)c(N)c(=O)[nH]c2cc1C [Example 072, 3-Amino-4-(7-fluoro-1H-indazol-4-yl)-6-(3-methoxy-3-methyl-but-1-ynyl)-7-methyl-1H-1,5-naphthyridin-2-one]
14 | 17.2 | Cc1cc2[nH]c(=O)c(N)c(-c3ccc(F)c4[nH]ncc34)c2nc1OCC(C)(C)O [Example 078, 3-Amino-4-(7-fluoro-1H-indazol-4-yl)-6-(2-hydroxy-2-methyl-propoxy)-7-methyl-1H-1,5-naphthyridin-2-one]
15 | 17.8 | Cc1cc2[nH]c(=O)c(N)c(-c3ccc(F)c4[nH]ncc34)c2nc1OC1CC(C#N)C1 (stereo not shown) [Example 079, 3-[[7-Amino-8-(7-fluoro-1H-indazol-4-yl)-3-methyl-6-oxo-5H-1,5-naphthyridin-2-yl]oxy]cyclobutanecarbonitrile]
16 | 14.6 | Cc1cc2[nH]c(=O)c(N)c(-c3ccc(F)c4[nH]ncc34)c2nc1OCCC(F)F [Example 081, 3-Amino-6-(3,3-difluoropropoxy)-4-(7-fluoro-1H-indazol-4-yl)-7-methyl-1H-1,5-naphthyridin-2-one]

Row | IC50 [nM] | Structure (SMILES)
17 | 12.3 | COC(=O)c1nc2c(-c3ccc(F)c4[nH]ncc34)c(N)c(=O)[nH]c2cc1C [Example 087, Methyl 7-amino-8-(7-fluoro-1H-indazol-4-yl)-3-methyl-6-oxo-5H-1,5-naphthyridine-2-carboxylate]
18 | 47 | Cc1cc2[nH]c(=O)c(N)c(-c3ccc(F)c4[nH]ncc34)c2nc1C(C)(C)O [Example 088, 3-Amino-4-(7-fluoro-1H-indazol-4-yl)-6-(1-hydroxy-1-methyl-ethyl)-7-methyl-1H-1,5-naphthyridin-2-one]
19 | 11.9 | Cc1cc2[nH]c(=O)c(N)c(-c3ccc(F)c4[nH]ncc34)c2nc1C1COC1 [Example 093, 3-Amino-4-(7-fluoro-1H-indazol-4-yl)-7-methyl-6-(oxetan-3-yl)-1H-1,5-naphthyridin-2-one]
20 | < 10 | Nc1c(-c2ccc(F)c3[nH]ncc23)c2nc(Cl)c(C3CC3)cc2[nH]c1=O [Example 095, 3-Amino-6-chloro-7-cyclopropyl-4-(7-fluoro-1H-indazol-4-yl)-1H-1,5-naphthyridin-2-one]
21 | 24.9 | Cc1cc2[nH]c(=O)c(N)c(-c3ccc(F)c4[nH]ncc34)c2nc1C(F)(F)F [Example 097, 3-Amino-4-(7-fluoro-1H-indazol-4-yl)-7-methyl-6-(trifluoromethyl)-1H-1,5-naphthyridin-2-one]
22 | 16 | COc1cc(C)cc2[nH]c(=O)c(N)c(-c3ccc(F)c4[nH]ncc34)c12 [Example 102, 3-Amino-4-(7-fluoro-1H-indazol-4-yl)-5-methoxy-7-methyl-1H-quinolin-2-one]
23 | < 10 | Cc1cc(Cl)c2c(-c3ccc(F)c4[nH]ncc34)c(N)c(=O)[nH]c2c1 [Example 103, 3-Amino-5-chloro-4-(7-fluoro-1H-indazol-4-yl)-7-methyl-1H-quinolin-2-one]
24 | 15.7 | Cc1cc2[nH]c(=O)c(N)c(-c3ccc(F)c4[nH]ncc34)c2cc1Br [Example 104, 3-Amino-6-bromo-4-(7-fluoro-1H-indazol-4-yl)-7-methyl-1H-quinolin-2-one]
25 | 18.5 | Cc1cc2[nH]c(=O)c(N)c(-c3ccc(F)c4[nH]ncc34)c2cc1N1CC2(COC2)C1 [Example 105, 3-Amino-4-(7-fluoro-1H-indazol-4-yl)-7-methyl-6-(2-oxa-6-azaspiro[3.3]heptan-6-yl)-1H-quinolin-2-one]
26 | 14.5 | Cc1cc2[nH]c(=O)c(N)c(-c3ccc(F)c4[nH]ncc34)c2cc1C1CCN(CC(F)(F)F)CC1 [Example 106, 3-Amino-4-(7-fluoro-1H-indazol-4-yl)-7-methyl-6-[1-(2,2,2-trifluoroethyl)-4-piperidyl]-1H-quinolin-2-one]
27 | 15.1 | Cc1c(Br)nc2c(-c3ccc(F)c4[nH]ncc34)c(N)c(=O)[nH]c2c1Cl [Example 108, 3-Amino-6-bromo-8-chloro-4-(7-fluoro-1H-indazol-4-yl)-7-methyl-1H-1,5-naphthyridin-2-one]
28 | < 10 | Cc1c(C2CC2)nc2c(-c3ccc(F)c4[nH]ncc34)c(N)c(=O)[nH]c2c1Cl [Example 109, 3-Amino-8-chloro-6-cyclopropyl-4-(7-fluoro-1H-indazol-4-yl)-7-methyl-1H-1,5-naphthyridin-2-one]
29 | < 10 | C#Cc1nc2c(-c3ccc(F)c4[nH]ncc34)c(N)c(=O)[nH]c2c(Cl)c1C [Example 111, 3-Amino-8-chloro-6-ethynyl-4-(7-fluoro-1H-indazol-4-yl)-7-methyl-1H-1,5-naphthyridin-2-one]
30 | < 10 | CC(=O)c1nc2c(-c3ccc(F)c4[nH]ncc34)c(N)c(=O)[nH]c2c(Cl)c1C [Example 112, 6-Acetyl-3-amino-8-chloro-4-(7-fluoro-1H-indazol-4-yl)-7-methyl-1H-1,5-naphthyridin-2-one]
31 | < 10 | C=Cc1nc2c(-c3ccc(F)c4[nH]ncc34)c(N)c(=O)[nH]c2c(Cl)c1C [Example 113, 3-Amino-8-chloro-4-(7-fluoro-1H-indazol-4-yl)-7-methyl-6-vinyl-1H-1,5-naphthyridin-2-one]
32 | 13.6 | Cc1c(C2CC2)nc2c(-c3ccc(F)c4[nH]ncc34)c(N)c(=O)[nH]c2c1C1CC1 [Example 114, 3-Amino-6,8-dicyclopropyl-4-(7-fluoro-1H-indazol-4-yl)-7-methyl-1H-1,5-naphthyridin-2-one]

Row | Structure (SMILES) | IC50 [nM]
33 | Cc1cc2[nH]c(=O)c(N)c(-c3ccc(F)c4[nH]ncc34)c2nc1O[C@H]1C[C@H](F)C1 [Example 080, trans-3-Amino-6-(3-fluorocyclobutoxy)-4-(7-fluoro-1H-indazol-4-yl)-7-methyl-1H-1,5-naphthyridin-2-one] | 21.1
34 | Cc1cc2[nH]c(=O)c(N)c(-c3ccc(F)c4[nH]ncc34)c2nc1OC1CC(C(C)(C)O)C1 (stereo not shown) [Example 096, 3-Amino-4-(7-fluoro-1H-indazol-4-yl)-6-[3-(1-hydroxy-1-methyl-ethyl)cyclobutoxy]-7-methyl-1H-1,5-naphthyridin-2-one] | 65.2
